The results in this text go back to patent US5015578A, “BMY-41950 antitumor antibiotic” (Bristol-Myers Squibb Company, priority 1990, dated 1991).

In brackets after ≈: the same amount, converted by molar mass.

For series [1], the system named is B16-F10 (murine melanoma). Nature of the series: In vitro cytotoxicity, B16-F10 cells (crystal violet). In kind it is cell-based. To be noted: 72 hours, 50% cell death or growth inhibition; for IC50: Mus musculus, B16-F10, read-out: In Vitro Antitumor Activity IC50, B16-F10. As to the method: (§1) BMY-41950 was tested for in vitro cytotoxic activity against a murine and a human tumor cell line. In vivo it was tested for activity against a murine leukemia tumor model. In vitro, mitomycin C and cisplatin were used as the reference compounds, while etoposide (VP-16) was used as the in vivo reference.
(§2) B16-F10 (murine melanoma) and HCT-116 (human colon cancer cell clone) cells were cultured in Complete McCoys Media. The media consists of 420 ml McCoys 5A media plus 500 mg sodium bicarbonate in 6 ml water, 6.56 mg L-serine. 1.5 mg L-asparagine and 82.4 mg sodium pyruvate in 2 ml water. 6.25 ml essential amino acids (50X, Gibco), 3.0 ml non-essential amino acids (100X, Gibco), 3 ml L-glutamine (200MM), 3 ml MEM vitamins (Gibco), 6.25 ml penicillin/streptomycin (Gibco) and 50 ml of heat-inactivated defined fetal calf serum.
(§3) The two cell lines are harvested during logarithmic phase cell growth and 3600 cells in 150 microliter media were placed in each well of a 96 well microtiter plate. After 24 hours incubation at 37 degrees Celsius in a 95% air/5% carbon dioxide humidified incubator to allow the cells to attach to the plate, fifty microliters of sample/reference drug is added to 11 of 12 of the top row of wells while 50 microliters of media is added to the 12th. The drugs/media are serially diluted (4 fold dilutions) down the 8 wells of the plate. The cells in the presence of drug/media are then incubated for 72 hours. After fixing with 10% formalin, cells killed by the drug were washed off the plate while those surviving cells are stained with 0.0075% crystal violet. After drying, the stain is solubilized with 10% ethanol and 1% acetic acid, the developed plate quantitated on a Dynatech MR 600 plate reader and the IC50 values (drug concentration at which 50% cell death or growth inhibition occurs) calculated.

Series [2] deals with Staphylococcus aureus A9537. The series can be described thus: MIC vs. Staphylococcus aureus A9537, in vitro antimicrobial screening. Type of series: cell-based. The following applies: read-out: MIC (Minimum Inhibitory Concentration).
For series [3], the system named is Enterococcus faecalis A20688. Nature of the series: MIC vs. Enterococcus faecalis A20688, in vitro antimicrobial screening. Type of series: cell-based. The following applies: read-out: MIC (Minimum Inhibitory Concentration).
Another series can be described thus: Solubility. Type of series: physicochemical.
Series [4] concerns lymphocytic leukemia P388 cells. Nature of the series: In vivo activity in P388 murine leukemia model. The following applies: days 1-5. Also noted: species or system murine (female CDF1 mice). As to the method: as §1
In vivo activity of BMY-41950 was determined in a murine leukemia tumor system. Female CDF1 mice were intraperitoneally inoculated with 0.5 ml of diluted ascitic fluid containing 10^6 lymphocytic leukemia P388 cells. Ten mice were untreated and the median survival time of this group was 10 days. Three groups of 4 mice each were treated with BMY-41950 on days 1, 2, 3, 4 and 5 post tumor implant. The drug was administered ip after being initially dissolved in DMSO, Tween 80 and buffered saline. […] Thus the % T/C (survival time of drug treated/survival time of untreated controls×100) was 130%. The criteria for antitumor activity in this murine tumor test is a % T/C of 125 or greater. Thus. BMY-41950 fulfilled the criteria for antitumor activity in the P388 murine leukemia antitumor model.

The test system of series [5] is HCT-116 (human colon cancer cell clone). Nature of the series: In vitro cytotoxicity, HCT-116 cells (crystal violet). To be noted: 72 hours, 50% cell death or growth inhibition; for IC50: Homo sapiens, HCT-116, read-out: In Vitro Antitumor Activity IC50, HCT-116. Type of series: cell-based. Here is the method: as §1, §2, §3

Usually IC50 stands for the concentration that gives 50% inhibition. As to `CNC1CC2OC(C)(C1OC)n1c3ccccc3c3c4c(c5c6ccccc6n2c5c31)C(=O)NC4=O` (centres unmarked) [BMY-41950, 7-oxostaurosporine], the IC50 turned out to be 0.98 µg/mL (≈ 2.04 µM) in series [1] and 0.24 µg/mL (≈ 0.499 µM) in series [5]. Further, the results for the MIC in series [2] and in series [3] were 6.25 µg/mL (≈ 13 µM) and 12.5 µg/mL (≈ 26 µM), respectively. In addition, the “Solubility in CHCl3-CH3OH” value in “Solubility” (CHCl3-CH3OH (2:1 v/v)) is listed as “soluble”. Further, in “Solubility” (dimethylsulfoxide (DMSO)), the “Solubility in dimethylsulfoxide (DMSO)” value was “soluble”. For the same compound, the “Solubility in tetrahydrofuran (THF)” value in “Solubility” (tetrahydrofuran (THF)) was “soluble”. Besides, the “% T/C (survival time of drug treated/survival time of untreated controls×100)” value in series [4] (2 mg/kg/day ip, criterion for activity 125 or greater) is reported as 130%. The median survival time in series [4] (2 mg/kg/day ip, untreated controls 10 days) came to 13 days. Moreover, the “drug-induced toxicity / deaths” value in series [4] (18 and 6 mg/kg/day ip) is “suffered drug-induced toxicity and all mice died prior to day 7”.

Regarding `N.N.[Cl][Pt][Cl]` [Cisplatin], the “In Vitro Antitumor Activity IC50, B16-F10” value in series [1] stood at 3.9 µg/mL. For the same compound, the “In Vitro Antitumor Activity IC50, HCT-116” value in series [5] amounted to 15.6 µg/mL.

With `CO[C@@]12[C@H](COC(N)=O)C3=C(C(=O)C(C)=C(N)C3=O)N1C[C@@H]1N[C@@H]12` [Mitomycin C], the IC50 in series [1] and in series [5] was 0.98 µg/mL (≈ 2.93 µM) in each case.
